Results reported in patent US20110319397A1 (priority 2009, published 2011).

Target: α7-subtype of nicotinic receptors (Mus musculus, UniProt P49582)
Type: in vivo, mice
Conditions: ex vivo, mouse hippocampal membranes; dose inhibiting specific binding of 3H-α-bungarotoxin (1 nM) by 50%

Chain of α7-subtype of nicotinic receptors (P49582 23-502): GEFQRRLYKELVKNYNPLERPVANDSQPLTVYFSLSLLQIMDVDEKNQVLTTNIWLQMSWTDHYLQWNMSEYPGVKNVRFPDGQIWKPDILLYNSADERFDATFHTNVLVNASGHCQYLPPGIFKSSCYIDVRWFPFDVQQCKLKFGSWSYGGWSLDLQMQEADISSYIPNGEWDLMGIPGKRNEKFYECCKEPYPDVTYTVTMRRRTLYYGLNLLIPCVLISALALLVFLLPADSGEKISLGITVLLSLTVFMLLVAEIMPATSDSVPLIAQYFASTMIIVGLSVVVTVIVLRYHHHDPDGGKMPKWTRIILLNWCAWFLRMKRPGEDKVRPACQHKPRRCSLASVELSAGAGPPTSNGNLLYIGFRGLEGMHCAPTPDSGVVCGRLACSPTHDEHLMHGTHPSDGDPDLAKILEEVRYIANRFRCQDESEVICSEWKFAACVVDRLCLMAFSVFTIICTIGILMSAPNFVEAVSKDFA

SMILES: [O-][N+]12CCC(CC1)N(c1nnc(-c3ccoc3)o1)CC2 [Compound 1, 4-(5-Furan-3-yl-[1,3,4]oxadiazol-2-yl)-1,4-diaza-bicyclo[3.2.2]nonane 1-oxide]
- EC50 (mg/kg), Inhibition of 3H-α-Bungarotoxine Binding: 40 mg/kg
